Laboratory results from patent EP1308501A1, “Fermented beverages comprising yeast transformed by the ATF2 gene” (Pernod-Ricard, priority 2001, dated 2003).
Where two headings read alike, the source gives them in different places.

Tests used:
production d'esters = conditions: six mois après la mise en bouteille; cited from earlier work
Atf2p = target: T1, Atf2p (Saccharomyces cerevisiae, UniProt P53296); conditions: cited from earlier work
T1 sequence (P53296 1-535): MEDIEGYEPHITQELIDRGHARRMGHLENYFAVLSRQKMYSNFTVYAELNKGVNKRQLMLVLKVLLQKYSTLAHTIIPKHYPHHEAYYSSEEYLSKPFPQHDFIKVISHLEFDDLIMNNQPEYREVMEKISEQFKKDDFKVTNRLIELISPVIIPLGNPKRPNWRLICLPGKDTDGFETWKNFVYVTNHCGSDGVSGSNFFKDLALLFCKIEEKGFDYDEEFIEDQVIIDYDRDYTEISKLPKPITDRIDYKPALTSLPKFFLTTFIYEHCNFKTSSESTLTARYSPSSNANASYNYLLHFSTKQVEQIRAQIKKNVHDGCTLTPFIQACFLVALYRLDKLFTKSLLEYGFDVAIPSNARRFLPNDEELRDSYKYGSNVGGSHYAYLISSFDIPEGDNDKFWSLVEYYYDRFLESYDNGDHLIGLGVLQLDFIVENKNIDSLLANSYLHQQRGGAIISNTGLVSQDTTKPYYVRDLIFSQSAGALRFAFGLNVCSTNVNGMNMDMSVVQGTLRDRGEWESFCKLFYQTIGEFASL

[1] = system: alcool acétyle transférase; conditions: partially purified enzyme, cited from earlier work
YRC1001/pRC124 = experiment: Bioconversion of alcohols added to malt medium by a strain overexpressing ATF2; format: cell-based, Saccharomyces cerevisiae
Procedure: Transformation dans la souche […], sous contrôle du promoteur proTEF1, le gène ATF2 (pRC124). Les précultures sont réalisées dans du milieu liquide SC20 (Sherman, 1991) dépourvu d'uracile et selon la même procédure que dans l'exemple 3. Les cultures sont ensemencées comme décrit précédemment dans du milieu malt, cette fois non glucosé. Ce dernier est supplémenté en leucine, lysine et histidine. A ce milieu malt, on ajoute juste avant ensemencement des alcools à raison de 100 μg/ml. Après fermentation pendant 98 heures, on analyse -comme décrit précédemment- les alcools et leurs produits dérivés (esters […] correspondant à l'alcool et son ester éthylé). La capacité de bioconversion est ensuite exprimée par le rapport « ester acétylé de l'alcool ajouté »/« somme des alcools et produits dérivés ». Cette valeur donne une indication […] au milieu extérieur par la souche de levure transformée. Les résultats sont […] Tableau 4.

[2] = alcohol added at 100 µg/ml, malt non glucosé, 98 heures, ratio ester acétylé de l'alcool ajouté / somme des alcools et produits dérivés

In the case of `CC(=O)OCCC(C)C` [acétate d'isoamyle], the “réduction des esters acétylés” value (production d'esters) is listed as roughly 2 fois.
For `CC(=O)OCCc1ccccc1` [acétatede 2-phényléthyle], the “réduction des esters acétylés” value (production d'esters) is listed as roughly 2 fois.
In the case of `CC(=O)SCCNC(=O)CCNC(=O)[C@H](O)C(C)(C)COP(=O)(O)OP(=O)(O)OC[C@H]1O[C@@H](n2cnc3c(N)ncnc32)[C@H](O)[C@@H]1OP(=O)(O)O` [acétyle-CoA], the Km (Atf2p) is given as 1 µM and the Km ([1]; co-factor) is given as 25 to 40 µM.
In the case of `OCc1ccccc1` [benzylalcool], the “Bioconversion par YRC1001/pRC124” value (YRC1001/pRC124; [2]) is reported as 0,163.
In the case of `CC(C)CCO` [isoamylalcool], the Km ([1]; acceptor) is given as 25000 µM and the “Bioconversion par YRC1001/pRC124” value (YRC1001/pRC124; [2]) is given as 0,045.
With `CCCCO` [n-butanol] the “Bioconversion par YRC1001/pRC124” value (YRC1001/pRC124) was 0,021.
For `CC(=O)[C@H]1CC[C@H]2[C@@H]3CC=C4C[C@@H](O)CC[C@]4(C)[C@H]3CC[C@]12C` [pregnénolone], the Km (Atf2p) is listed as 0.5 µM.
